Assay results reported in patent US9375000B2, “Pesticidal arylpyrrolidines” (Bayer Intellectual Property GmbH, priority 2011, dated 2016).

Experiments:
Type in all cases: in vivo
[1] = system: Cucurbit Leaf Beetle (Aulacophora femoralis); experiment: Cucurbit leaf beetle (Aulacophora femoralis) cucumber leaf dip test; details: after 7 days
Experimental: (§1) Unless not mentioned otherwise, the test solutions were prepared as follows:
(§2) Solvent: 3 parts by weight Dimethylformamide
(§3) Emulsifier: 1 part by weight Polyoxyethylene alkyl phenyl ether
(§4) In order to make an appropriate formulation of an active compound, 1 part by weight of the active compound is mixed with the above mentioned amount of solvent and emulsifier and the mixture is diluted with water to a prescribed concentration. Ammonium salt or ammonium salt and penetration enhancer in a dosage of 1000 ppm are added to the desired concentration if necessary.
Leaves of cucumber were immersed in the test solution at the appropriate concentration, and the leaves were dried in air. The leaves were then put in a plastic cup containing sterilized black soil and five Aulacophora femoralis at second instar larvae were released in the cup. The cups were placed in a temperature-controlled chamber at 25° C. After 7 days, the number of dead larvae was counted, and thus the insecticidal activity was calculated. An insecticidal activity of 100% means that all larvae were killed, whereas an insecticidal activity of 0% means that no larva was killed.

[2] = system: Two-Spotted Spider Mite (Tetranychus urticae); experiment: Two-spotted spider mite (Tetranychus urticae) spray test on kidney bean; details: after 7 days
Experimental: as §1, §2, §3, §4
50 to 100 adult mites of Tetranychus urticae were inoculated to leaves of kidney bean at two-leaf stage planted in a pot of 6 cm in diameter. After one day, test solution at the appropriate concentration was sprayed thereon in a sufficient amount using a spray gun. After the spraying, the plant pot was placed inside a greenhouse, and after 7 days, the acaricidal activity was calculated. An acaricidal activity of 100% means that all mites were killed, whereas an acaricidal activity of 0% means that no mite was killed.

[3] = system: Larvae of Spodoptera litura; experiment: Larvae of Spodoptera litura, method using artificial feeds; details: artificial feed, after 7 days
Experimental: as §1, §2, §3, §4
[A Method Using Artificial Feeds (Trade Name: Insecta LFM, Manufactured by Nosan Corporation)]
Powdery artificial feeds (2.3 g) were added to a plastic cup (diameter: 7.5 cm, height: 4 cm) to achieve a certain thickness. Water-diluted liquid (5 ml) of the active compound prepared above having predetermined concentration was evenly poured thereto and allowed to stand until the feeds were solidified. Five of the 3rd-instar larvae of Spodoptera litura were released in respective cups, and covered. The cups were put in a temperature controlled room at 25° C. and humidity of 50 to 60%, and the number of dead larvae after 7 days was determined to calculate the pesticidal ratio. 100% pesticidal ratio means death of all the larvae, while 0% pesticidal ratio means no dead larvae.

[4] = active compound concentration 20 ppm
[5] = active compound concentration 4 ppm

CCC(=O)NCc1ccc(N2CCC(c3cc(Cl)c(F)c(Cl)c3)(C(F)(F)F)C2O)nc1C(F)(F)F (mixture of isomers) [A3-200]
100%: insecticidal activity [1, 4] | acaricidal activity [2, 4] | insecticidal activity (pesticidal ratio) [3, 4]

O=C(NCc1ccc(N2CCC(c3cc(Cl)c(F)c(Cl)c3)(C(F)(F)F)C2O)nc1C(F)(F)F)C1CC1 (mixture of isomers) [A3-203]
100%: insecticidal activity [1, 4] | acaricidal activity [2, 4] | insecticidal activity (pesticidal ratio) [3, 4]

CCC(=O)NCc1ccc(N2CCC(c3cc(Cl)c(F)c(Cl)c3F)(C(F)(F)F)C2O)nc1C(F)(F)F (mixture of isomers) [A3-211]
100%: insecticidal activity [1, 5] | insecticidal activity [1, 4] | acaricidal activity [2, 5] | acaricidal activity [2, 4] | insecticidal activity (pesticidal ratio) [3, 5] | insecticidal activity (pesticidal ratio) [3, 4]

CCC(=O)NCc1ccc(N2CCC(c3cc(Cl)cc(C(F)(F)F)c3)(C(F)(F)F)C2O)nc1C(F)(F)F (mixture of isomers) [A3-266]
100%: insecticidal activity [1, 4] | acaricidal activity [2, 4] | insecticidal activity (pesticidal ratio) [3, 4]

O=C(NCc1ccc(N2CCC(c3cc(Cl)cc(C(F)(F)F)c3)(C(F)(F)F)C2O)nc1C(F)(F)F)C1CC1 (mixture of isomers) [A3-269]
100%: insecticidal activity [1, 4] | acaricidal activity [2, 4] | insecticidal activity (pesticidal ratio) [3, 4]

CCC(=O)NCc1ccc(N2CCC(c3cccc(C(F)(F)F)c3)(C(F)(F)F)C2O)cc1C(F)(F)F (racemic) [A1-294]
100%: insecticidal activity [1, 4] | acaricidal activity [2, 4] | insecticidal activity (pesticidal ratio) [3, 4]

O=C(NCc1ccc(N2CCC(c3cccc(C(F)(F)F)c3)(C(F)(F)F)C2O)cc1C(F)(F)F)C1CC1 (racemic) [A1-297]
100%: insecticidal activity [1, 4] | acaricidal activity [2, 4] | insecticidal activity (pesticidal ratio) [3, 4]

CCC(=O)NCc1ccc(N2CCC(c3ccc(F)c(C(F)(F)F)c3)(C(F)(F)F)C2O)cc1C(F)(F)F (racemic) [A1-305]
100%: insecticidal activity [1, 4] | acaricidal activity [2, 4] | insecticidal activity (pesticidal ratio) [3, 4]

O=C(NCc1ccc(N2CCC(c3ccc(F)c(C(F)(F)F)c3)(C(F)(F)F)C2O)cc1C(F)(F)F)C1CC1 (racemic) [A1-308]
100%: insecticidal activity [1, 4] | acaricidal activity [2, 4] | insecticidal activity (pesticidal ratio) [3, 4]

CCC(=O)NCc1ccc(N2CCC(c3cccc(C(F)(F)F)c3)(C(F)(F)F)C2O)nc1C(F)(F)F (racemic) [A3-222]
100%: insecticidal activity [1, 4] | acaricidal activity [2, 4] | insecticidal activity (pesticidal ratio) [3, 4]

O=C(NCc1ccc(N2CCC(c3cccc(C(F)(F)F)c3)(C(F)(F)F)C2O)nc1C(F)(F)F)C1CC1 (racemic) [A3-225]
100%: insecticidal activity [1, 4] | acaricidal activity [2, 4] | insecticidal activity (pesticidal ratio) [3, 4]

O=C(CC(F)(F)F)NCc1ccc(N2CCC(c3cccc(C(F)(F)F)c3)(C(F)(F)F)C2O)nc1C(F)(F)F (racemic) [A3-227]
100%: insecticidal activity [1, 4] | acaricidal activity [2, 4] | insecticidal activity (pesticidal ratio) [3, 4]

O=C(NCc1ccc(N2CCC(c3cc(Cl)cc(Cl)c3)(C(F)(F)F)C2O)cc1Cl)C1CC1 (stereo not drawn) [A1-5]
100%: insecticidal activity [1, 4] | acaricidal activity [2, 4] | insecticidal activity (pesticidal ratio) [3, 4]

O=C(CC(F)(F)F)NCc1ccc(N2CCC(c3cc(Cl)cc(Cl)c3)(C(F)(F)F)C2O)cc1Cl (stereo not drawn) [A1-7]
100%: insecticidal activity [1, 4] | acaricidal activity [2, 4] | insecticidal activity (pesticidal ratio) [3, 4]

CCC(=O)NCc1ccc(N2CCC(c3cc(Cl)c(Cl)c(Cl)c3)(C(F)(F)F)C2O)cc1Cl (stereo not drawn) [A1-13]
100%: insecticidal activity [1, 4] | acaricidal activity [2, 4] | insecticidal activity (pesticidal ratio) [3, 4]

CC(=O)NCc1ccc(N2CCC(c3cc(C(F)(F)F)cc(C(F)(F)F)c3)(C(F)(F)F)C2O)cc1Cl (stereo not drawn) [A1-23]
100%: insecticidal activity [1, 4] | acaricidal activity [2, 4] | insecticidal activity (pesticidal ratio) [3, 4]

CCC(=O)NCc1ccc(N2CCC(c3cc(C(F)(F)F)cc(C(F)(F)F)c3)(C(F)(F)F)C2O)cc1Cl (stereo not drawn) [A1-24]
100%: insecticidal activity [1, 4] | acaricidal activity [2, 4] | insecticidal activity (pesticidal ratio) [3, 4]

COCCC(=O)NCc1ccc(N2CCC(c3cc(C(F)(F)F)cc(C(F)(F)F)c3)(C(F)(F)F)C2O)cc1Cl (stereo not drawn) [A1-30]
100%: insecticidal activity [1, 4] | acaricidal activity [2, 4] | insecticidal activity (pesticidal ratio) [3, 4]

CSCC(=O)NCc1ccc(N2CCC(c3cc(C(F)(F)F)cc(C(F)(F)F)c3)(C(F)(F)F)C2O)cc1Cl (stereo not drawn) [A1-31]
100%: insecticidal activity [1, 4] | acaricidal activity [2, 4] | insecticidal activity (pesticidal ratio) [3, 4]

CS(=O)(=O)CC(=O)NCc1ccc(N2CCC(c3cc(C(F)(F)F)cc(C(F)(F)F)c3)(C(F)(F)F)C2O)cc1Cl (stereo not drawn) [A1-33]
100%: insecticidal activity [1, 4] | acaricidal activity [2, 4] | insecticidal activity (pesticidal ratio) [3, 4]

O=C(NCc1ccc(N2CCC(c3cc(Cl)cc(Cl)c3)(C(F)(F)F)C2O)cc1C(F)(F)F)C1CC1 (stereo not drawn) [A1-38]
100%: insecticidal activity [1, 4] | acaricidal activity [2, 4] | insecticidal activity (pesticidal ratio) [3, 4]

O=C(CC(F)(F)F)NCc1ccc(N2CCC(c3cc(Cl)cc(Cl)c3)(C(F)(F)F)C2O)cc1C(F)(F)F (stereo not drawn) [A1-40]
100%: insecticidal activity [1, 4] | acaricidal activity [2, 4] | insecticidal activity (pesticidal ratio) [3, 4]

CSCC(=O)NCc1ccc(N2CCC(c3cc(Cl)cc(Cl)c3)(C(F)(F)F)C2O)cc1C(F)(F)F (stereo not drawn) [A1-42]
100%: insecticidal activity [1, 4] | acaricidal activity [2, 4] | insecticidal activity (pesticidal ratio) [3, 4]

C[S+]([O-])CC(=O)NCc1ccc(N2CCC(c3cc(Cl)cc(Cl)c3)(C(F)(F)F)C2O)cc1C(F)(F)F (stereo not drawn) [A1-43]
100%: insecticidal activity [1, 4] | acaricidal activity [2, 4] | insecticidal activity (pesticidal ratio) [3, 4]

CS(=O)(=O)CC(=O)NCc1ccc(N2CCC(c3cc(Cl)cc(Cl)c3)(C(F)(F)F)C2O)cc1C(F)(F)F (stereo not drawn) [A1-44]
100%: insecticidal activity [1, 4] | acaricidal activity [2, 4] | insecticidal activity (pesticidal ratio) [3, 4]

CCC(=O)NCc1ccc(N2CCC(c3cc(Cl)c(Cl)c(Cl)c3)(C(F)(F)F)C2O)cc1C(F)(F)F (stereo not drawn) [A1-46]
100%: insecticidal activity [1, 4] | acaricidal activity [2, 4] | insecticidal activity (pesticidal ratio) [3, 4]

O=C(NCc1ccc(N2CCC(c3cc(Cl)c(Cl)c(Cl)c3)(C(F)(F)F)C2O)cc1C(F)(F)F)C1CC1 (stereo not drawn) [A1-49]
100%: insecticidal activity [1, 4] | acaricidal activity [2, 4] | insecticidal activity (pesticidal ratio) [3, 4]

O=C(CC(F)(F)F)NCc1ccc(N2CCC(c3cc(Cl)c(Cl)c(Cl)c3)(C(F)(F)F)C2O)cc1C(F)(F)F (stereo not drawn) [A1-51]
100%: insecticidal activity [1, 4] | acaricidal activity [2, 4] | insecticidal activity (pesticidal ratio) [3, 4]

CCC(=O)NCc1ccc(N2CCC(c3cc(Cl)c(Cl)c(Cl)c3)(C(F)(F)F)C2O)cc1Br (stereo not drawn) [A1-162, N-{2-bromo-4-[2-hydroxy-3-(3,4,5-trichlorophenyl)-3-(trifluoromethyl)pyrrolidin-1-yl]benzyl}propanamide]
100%: pest or weed control at 20 ppm ([1]; Aulacophora, foliar, 168 h, active compound concentration 20 ppm, read-out: insecticidal activity) | pest or weed control at 20 ppm ([2]; Tetranychus urticae, 168 h, active compound concentration 20 ppm, read-out: acaricidal activity) | pest or weed control at 20 ppm ([3]; Spodoptera litura, 168 h, active compound concentration 20 ppm, read-out: insecticidal activity (pesticidal ratio))
